{"source": "patent US6420338B1", "about": "“Inhibition of the Src kinase family pathway as a method of treating HBV infection and hepatocellular carcinoma” (New York University Medical Center, priority 1997, dated 2002)", "test_system": "c-Src", "assay": "c-Src immunoprecipitation in vitro kinase assay (auto-phosphorylation and enolase trans-phosphorylation)", "format": "cell-based", "conditions": "serum-starved NIH 3T3 cells; PDGF 100 ng/ml for 5 min", "protocol": "FIGS. 1A-1C Serum-starved NIH 3T3 cells were infected with AdCMV-X or -Xo viruses, c-Src or c-Fyn was immunoprecipitated, the pellet washed and assayed by incubation with the substrate enolase and [γ-^32P] ATP. Products were resolved by SDS-10%-PAGE then visualized and quantitiated by PhosphorImage analysis. c-Src (FIG. 1A) or c-Fyn (FIG. 1B) were immunoprecipitated 8 h p.i. from NIH 3T3 cell lysates expressing HBx or HBxo. Where indicated, cells were incubated with PDGF (100 ng/ml) for 5 min. (FIG. 1C) Transfected HBx activates c-Src in the cytoplasm. Chang cells were transfected with 10 μg pCMV-Xo (HBxo), PCMV-X (wt HBx) or pCMV-XNLS (nuclear HBx) expression plasmids, serum-starved for 24 h, c-Src immunoprecipitated and subjected to an in vitro trans-phosphorylation assay, then analyzed as above. […]\nSrc kinase assays were carried out essentially as described (Kypta et al., 1990, Cell 62:481-492). […] Src and Fyn kinase activity were measured by immunoprecipitating either Src (1 μg anti-Src antibodies) or Fyn (1 μg/ml anti-Fyn antibodies) from equal amounts of cell lysate. […] For the reactions containing the Src peptide substrate, TCA was added to a final concentration of 20%, an aliquot was spotted onto phosphocellulose paper (UBI), the filters were washed 3×5 minutes in 0.75% phosphoric acid and once in acetone, dried and analyzed by scintillation counting. […]", "data": [{"substance": "PDGF", "values": [{"measurement": "activation of c-Src (auto- and trans-phosphorylation)", "value": "3-4 fold"}]}]}
